This passage reports IC50 results from patent US20210300940A1 (Merck Patent GmbH, priority 2018, published 2021).

pIC50: −log10 of the molar value.

The target in one test is T1, TLR7 (Homo sapiens, UniProt Q9NYK1).
T1 construct: expressed in transfected cells; host or cells: HEK/293 cells carrying TLR7 and an NF-kB luciferase reporter
T1 sequence (Q9NYK1 27-1049): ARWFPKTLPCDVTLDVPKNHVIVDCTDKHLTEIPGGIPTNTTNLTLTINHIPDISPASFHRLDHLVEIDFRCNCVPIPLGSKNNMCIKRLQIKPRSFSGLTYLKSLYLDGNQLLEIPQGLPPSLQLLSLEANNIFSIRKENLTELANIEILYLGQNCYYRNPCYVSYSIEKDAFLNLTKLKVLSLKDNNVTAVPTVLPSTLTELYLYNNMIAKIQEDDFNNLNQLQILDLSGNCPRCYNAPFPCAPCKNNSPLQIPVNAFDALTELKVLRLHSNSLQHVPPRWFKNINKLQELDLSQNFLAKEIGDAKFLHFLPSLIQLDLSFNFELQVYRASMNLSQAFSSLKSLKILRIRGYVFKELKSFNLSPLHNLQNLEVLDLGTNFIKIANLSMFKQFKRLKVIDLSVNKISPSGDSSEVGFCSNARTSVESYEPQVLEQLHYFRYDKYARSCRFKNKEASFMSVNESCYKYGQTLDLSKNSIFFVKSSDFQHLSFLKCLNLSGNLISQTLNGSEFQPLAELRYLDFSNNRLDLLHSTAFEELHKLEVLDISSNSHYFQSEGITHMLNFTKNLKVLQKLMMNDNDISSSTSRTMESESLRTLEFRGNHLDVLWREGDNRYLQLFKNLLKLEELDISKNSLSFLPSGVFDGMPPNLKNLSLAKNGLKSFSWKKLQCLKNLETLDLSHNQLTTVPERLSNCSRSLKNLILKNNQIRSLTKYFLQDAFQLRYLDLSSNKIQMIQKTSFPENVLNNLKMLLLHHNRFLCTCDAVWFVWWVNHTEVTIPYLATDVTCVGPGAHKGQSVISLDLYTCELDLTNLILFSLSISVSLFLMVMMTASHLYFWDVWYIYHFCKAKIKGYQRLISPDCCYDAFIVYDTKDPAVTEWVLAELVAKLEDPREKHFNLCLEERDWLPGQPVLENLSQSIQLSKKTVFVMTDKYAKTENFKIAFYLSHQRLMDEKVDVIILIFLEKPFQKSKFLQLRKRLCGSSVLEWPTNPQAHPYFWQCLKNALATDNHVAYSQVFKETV
Briefly: HEK/293 TLR7 Cell Assay. The settings on record: TLR7/NFKb HEK cells, R848 agonist 10 uM final concentration, Steady-Glo readout; read-out: TLR7 potency. Format: cell-based. Put shortly:
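Compounds added to HEK cells expressing TLR7 with an NFκB reporter 30 min ahead of 10 uM R848 challenge; luciferase signal (Steady-Glo) measured after 5 h, cells having been seeded 24 h earlier at 5000 per well.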

The next test has as its target T2, TLR8 (Homo sapiens, UniProt Q9NR97).
T2 construct: expressed in transfected cells; host or cells: HEK/293 reporter cells (NF-kB luciferase)
T2 sequence (Q9NR97 27-1041): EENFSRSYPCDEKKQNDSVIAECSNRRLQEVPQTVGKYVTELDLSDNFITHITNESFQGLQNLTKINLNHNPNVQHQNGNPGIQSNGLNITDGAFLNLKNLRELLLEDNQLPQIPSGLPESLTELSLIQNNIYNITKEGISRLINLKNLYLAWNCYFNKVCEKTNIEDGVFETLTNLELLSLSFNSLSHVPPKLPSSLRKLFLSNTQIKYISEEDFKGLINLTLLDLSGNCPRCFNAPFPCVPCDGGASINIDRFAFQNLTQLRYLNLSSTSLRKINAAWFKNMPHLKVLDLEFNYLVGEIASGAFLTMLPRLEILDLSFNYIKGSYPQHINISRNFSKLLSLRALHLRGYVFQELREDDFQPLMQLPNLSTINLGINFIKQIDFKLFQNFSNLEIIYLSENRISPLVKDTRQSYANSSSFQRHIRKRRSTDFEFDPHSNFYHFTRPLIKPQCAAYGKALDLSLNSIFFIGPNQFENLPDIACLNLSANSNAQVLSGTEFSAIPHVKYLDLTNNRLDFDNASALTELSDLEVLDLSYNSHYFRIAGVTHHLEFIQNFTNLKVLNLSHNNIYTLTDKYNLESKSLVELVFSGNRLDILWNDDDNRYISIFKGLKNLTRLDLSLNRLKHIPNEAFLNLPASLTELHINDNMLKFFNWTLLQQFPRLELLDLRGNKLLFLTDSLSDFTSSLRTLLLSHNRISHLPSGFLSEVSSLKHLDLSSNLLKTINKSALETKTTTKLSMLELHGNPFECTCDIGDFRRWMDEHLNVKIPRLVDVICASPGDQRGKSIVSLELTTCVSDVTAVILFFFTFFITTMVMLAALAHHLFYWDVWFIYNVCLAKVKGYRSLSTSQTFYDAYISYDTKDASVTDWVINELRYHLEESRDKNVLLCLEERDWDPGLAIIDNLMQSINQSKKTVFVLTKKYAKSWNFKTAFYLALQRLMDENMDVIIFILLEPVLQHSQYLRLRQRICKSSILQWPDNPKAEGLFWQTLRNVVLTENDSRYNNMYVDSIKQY
Briefly: HEK/293 TLR8 Cell Assay. Format: cell-based. The settings on record: HEK cells, R848 agonist 30 uM final concentration, Steady-Glo readout; read-out: TLR8 potency.

For the compound `N#Cc1ccc(N2C[C@H](NC(=O)[C@@H]3CCCN3)C[C@H](C(F)(F)F)C2)c2cccnc12` [Example 125, (2S)—N-[(3R,5S)-1-(8-cyanoquinolin-5-yl)-5-(trifluoromethyl)piperidin-3-yl]pyrrolidine-2-carboxamide], the pIC50 on TLR7 and on TLR8 was over 7.12 in each case.

Turning to `CCS(=O)(=O)NCCN[C@@H]1C[C@H](C)CN(c2ccc(C#N)c3nccnc23)C1` [Example 46, Ethane sulfonic acid {2-[(3R,5S)-1-(8-cyano-quinoxalin-5-yl)-5-methyl-piperidin-3-ylamino]-ethyl}-amide], the pIC50 at TLR7 is 6.82 to 7.12; at TLR8, over 7.12.

In the case of `C[C@H]1C[C@@H](NS(=O)(=O)NC2CCN(C)CC2)CN(c2ccc(C(F)(F)F)c3ncccc23)C1` [Example 200, N-(1-methylpiperidin-4-yl){[(3R,5S)-5-methyl-1-[8-(trifluoromethyl)quinolin-5-yl]piperidin-3-yl]amino}sulfonamide], the pIC50 at TLR7 and at TLR8 was over 7.12 each time.

With `C[C@@H]1CN(c2cnc(C#N)c3ncccc23)C[C@H](CNC(=O)[C@@]2(F)CCCNC2)O1` (single isomer, unassigned) [Example 338], the pIC50 at TLR7 and on TLR8 was over 7.12 throughout.

As to `CC(=O)N1CCC(NC(=O)[C@H]2CN(c3ccc(C#N)c4nccnc34)C[C@@H](C)O2)CC1` [Example 242, (2R,6R)-4-(8-Cyano-quinoxalin-5-yl)-6-methyl-morpholine-2-carboxylic acid (1-acetyl-piperidin-4-yl)-amide], the pIC50 at TLR7 and at TLR8 was over 7.12 throughout.

As for `C[C@@H]1CN(c2ccc(C#N)c3nccnc23)C[C@H](C(=O)NC[C@H](O)C(F)(F)F)O1` [Example 249, (2R,6R)-4-(8-Cyano-quinoxalin-5-yl)-6-methyl-morpholine-2-carboxylic acid ((S)-3,3,3-trifluoro-2-hydroxy-propyl)-amide], the pIC50 at TLR7 and at TLR8 was over 7.12 each time.

For the compound `C[C@@H]1CN(c2ccc(C#N)c3nccnc23)C[C@H](C(=O)NC[C@@H]2COCCN2)O1` (single isomer, unassigned) [Example 297], the pIC50 on TLR7 and at TLR8 was over 7.12 throughout.

As for `C[C@@H]1CN(c2ccc(C#N)c3ncncc23)C[C@H](C(=O)NCC2(F)CCN(C)CC2)O1` [Example 346, (2R,6R)-4-(8-Cyano-quinazolin-5-yl)-6-methyl-morpholine-2-carboxylic acid (4-fluoro-1-methyl-piperidin-4-ylmethyl)-amide], the pIC50 at TLR7 and on TLR8 was over 7.12 in each case.

For the compound `C[C@H]1C[C@@H](NS(=O)(=O)NC(=O)CN2CCOCC2)CN(c2ccc(C(F)(F)F)c3ncccc23)C1` [Example 203, N-{[(3R,5S)-5-methyl-1-[8-(trifluoromethyl)quinolin-5-yl]piperidin-3-yl]sulfamoyl}-2-(morpholin-4-yl)acetamide], the pIC50 at TLR7 is 6.82 to 7.12; on TLR8 it was over 7.12.

On to `C[C@@H]1CN(c2ccc(C#N)c3nccnc23)C[C@H](C(=O)NC2CN(CC(F)(F)F)C2)O1` [Example 254, (2R,6R)-4-(8-Cyano-quinoxalin-5-yl)-6-methyl-morpholine-2-carboxylic acid [1-(2,2,2-trifluoro-ethyl)-azetidin-3-yl]-amide], for which the pIC50 on TLR7 is over 7.12; at TLR8, under 6.82.

`N#Cc1ccc(N2C[C@@H](C(F)(F)F)O[C@@H](C(=O)N3C[C@@H](N)C4(CC4)C3)C2)c2nccnc12` (single isomer, unassigned) [Example 311]: the pIC50 at TLR7 and at TLR8 was over 7.12 throughout.

For the compound `C[C@@H]1CN(c2cnc(C#N)c3ncccc23)C[C@H](CN2CCN(S(N)(=O)=O)CC2)O1` [Example 382, 4-{[(2S,6R)-4-(8-cyano-1,7-naphthyridin-5-yl)-6-methylmorpholin-2-yl]methyl}piperazine-1-sulfonamide], the pIC50 at TLR7 and on TLR8 was under 6.82 in each case.

As for `C[C@H]1C[C@@H](NC(=O)C[C@@H]2CCNC[C@@H]2F)CN(c2ccc(C#N)c3ncncc23)C1` [Example 131, N-[(3R,5S)-1-(8-cyanoquinazolin-5-yl)-5-methylpiperidin-3-yl]-2-[(3R,4S)-3-fluoropiperidin-4-yl]acetamide], the pIC50 on TLR7 is over 7.12; at TLR8, under 6.82.

As for `C[C@@H]1CN(c2ccc(C#N)c3nccnc23)C[C@H](CSC[C@H](O)CO)O1` (single isomer, unassigned) [Example 229], the pIC50 at TLR7 was 6.82 to 7.12; at TLR8, over 7.12.

For `C[C@H]1CN(c2ccc(C#N)c3nccnc23)C[C@H](CN2CCN(C)CC2)O1` [Example 231, 8-[(2S,6S)-2-Methyl-6-(4-methyl-piperazin-1-ylmethyl)-morpholin-4-yl]-quinoxaline-5-carbonitrile], the pIC50 at TLR7 and at TLR8 was over 7.12 in each case.

Consider `C[C@@H]1CN(c2ccc(C#N)c3nccnc23)C[C@H](C(=O)N2CC3(C2)CS(=O)(=O)C3)O1` [Example 251, 8-[(2R,6R)-2-(2,2-Dioxo-2lambda6-thia-6-aza-spiro[3.3]heptane-6-carbonyl)-6-methyl-morpholin-4-yl]-quinoxaline-5-carbonitrile], for which the pIC50 at TLR7 and on TLR8 was under 6.82 each time.

Consider `C[C@@H]1CN(c2cnc(C#N)c3ncccc23)C[C@H](CN2CCN(C)CC2)O1` [Example 368, 5-[(2R,6S)-2-Methyl-6-(4-methyl-piperazin-1-ylmethyl)-morpholin-4-yl]-naphthyridine-8-carbonitrile], for which the pIC50 at TLR7 and at TLR8 was over 7.12 each time.

Take `CN1CC[C@@](F)(CNC(=O)[C@H]2CN(c3cnc(C#N)c4ncccc34)C[C@@H](C(F)(F)F)O2)C1` (single isomer, unassigned) [Example 350]: the pIC50 at TLR7 and on TLR8 was under 6.82 in each case.

With `C[C@@H]1CN(c2ccc(C#N)c3nccnc23)C[C@H](CN2CC(C)(O)C2)O1` [Example 218, 8-[(2S,6R)-2-(3-Hydroxy-3-methyl-azetidin-1-ylmethyl)-6-methyl-morpholin-4-yl]-quinoxaline-5-carbonitrile], the pIC50 is over 7.12 on TLR7 and under 6.82 on TLR8.

Turning to `C[C@H]1C[C@@H](NCC(C)(C)O)CN(c2ccc(C#N)c3nccnc23)C1` [Example 16, 8-[(3R,5S)-3-(2-Hydroxy-2-methyl-propylamino)-5-methyl-piperidin-1-yl]-quinoxaline-5-carbonitrile formic acid], the pIC50 at TLR7 and on TLR8 was over 7.12 in each case.
